Source: patent US20080233202A1, “Fungicidal Compositions” (priority 2004, published 2008)

Assays:
[1] = system: Squash (Cucurbita maxima) cv ‘Delica’; test: Trial 3 leaf health rating and phyto-toxicity; assay type: in vivo; parameters: key: A: Perfect condition - no abiotic or biotic blemishes.; B: Small blemishes e.g. chlorotic patches, rubbing, insect damage; C: Severe/advanced chlorosis, necrosis or leaf distortion; D: Leaf dead
Procedure: Qualitative assessments of leaf health/condition were made at the same time as disease severity assessments, using the arbitrary scale described below.
Leaf health ratings were assessed using the criteria described in Table 4. Each value presented in Table 12 is a median value rather than an arithmetic mean.

[2] = system: cucurbit PM pathogen Sphaerotheca fuliginea; test: Trial 3 additional treatments, PM disease severity on ‘Delica’ squash leaves; assay type: in vivo; conditions: non-inoculated leaves (FIG. 7)
Text: Treatments were first applied 3 days after artificial inoculation of leaf 1, and at weekly intervals thereafter. There were 4 replicates per treatment, with two replicates per table per glasshouse.

Botrytis cinerea spores = test: Spore germination inhibition, 96-multiwell assay; assay type: cell-based; parameters: key: ****: No germination (score 4); ***: Slight germination (3); **: Moderate germination (2); *: Germination, less than control (1); —: No activity = germination same as the control (score 0); conditions: after 24 hours incubation at 19° C.
Procedure: (§1) The effect of selected treatments on the germination of three other important horticultural fungi, Botrytis cinerea (causal agent of grey mould on grapes, kiwifruit, tomatoes, strawberries, etc), Monilinia fructicola (causal agent of brown rot on stonefruit), and Cladosporium cladosporiodes (one of the fungi that can cause sooty mould) were also assessed using the 96-multiwell assay of Wilson et al (10).

[3] = system: Cladosporium cladosporiodes spores; test: Spore germination inhibition, 96-multiwell assay; assay type: cell-based; parameters: key: ****: No germination (score 4); ***: Slight germination (3); **: Moderate germination (2); *: Germination, less than control (1); —: No activity = germination same as the control (score 0); conditions: after 24 hours incubation at 19° C.
Procedure: as §1

[4] = system: Monilinia fructicola spores; test: Spore germination inhibition, 96-multiwell assay; assay type: cell-based; parameters: key: ****: No germination (score 4); ***: Slight germination (3); **: Moderate germination (2); *: Germination, less than control (1); —: No activity = germination same as the control (score 0); conditions: after 24 hours incubation at 19° C.
Procedure: as §1

[5] = system: Botrytis cinerea, Cladosporium cladosporiodes, and Monilinia fructicola spores; test: Spore germination inhibition, overall rating over the three fungi; assay type: cell-based; conditions: sum of all the germination scores; maximum 12 (greatest inhibition), minimum 0
Procedure: as §1
The Overall Rating is the sum of all the germination scores for each treatment (maximum possible value: 12 (greatest inhibition); minimum: 0 (no inhibition)).

[6] = system: cucurbit PM pathogen Sphaerotheca fuliginea; test: Trial 3 main treatments, PM disease severity on ‘Delica’ squash leaves; assay type: in vivo
Procedure: Squash (Cucurbita maxima) cv ‘Delica’ were raised and the first true leaf on each plant was artificially inoculated as in Trial 1.
Treatment applications were normally at 7-day intervals (although 14 and 21 day intervals were also used in Trial 3) and involved spraying all leaves to run-off (approximately 5 ml per leaf) using hand-held mister-bottles. The first application commenced 3-4 days after artificial inoculation (except for elicitor treatments in Trial 3), when the non-inoculated leaves on plants were still largely disease-free, and plants had up to 8 true leaves (i.e. were 5-6 weeks old).
Disease severity on true leaves 1-8 was rated weekly or fortnightly as discussed above.
Data were analysed as a repeated measures design (RMD) to determine the treatment effect on disease severity over time. Treatment differences at final disease assessment were also assessed as a randomised block design (RBD), by analysis of variance (ANOVA), with means separation by Fisher's Least Significant Difference (LSD) (P<0.05), using SAS software, version 8.01 TS (SAS Institute, Cary, N.C.).
Eight replicate squash plants per treatment (1 replicate per block) were assessed.
The first true leaf of each plant was artificially inoculated with PM, while all other leaves on the plant were allowed to infect naturally. Elicitors (treatments 13-15) were first applied 5 days before artificial inoculation, to allow time for induction of host defences prior to advent of the PM fungus, and every three weeks thereafter. […] All other treatments were first applied 3 days after artificial inoculation and at weekly (treatments 1-4, 7-8, 10-12, 16-20), fortnightly (treatment 5), or 3 weekly intervals (treatments 6 and 9) thereafter.
Treatment effect over time at 0, 2, 4, 6 and 7 weeks was assessed.

Question: Which results are given for Di-glycerine-mono-laurate [DGML]?
Answer: leaf health rating ([1]; Trial 3 additional, non-inoculated leaves, after 7 weeks): E; course of PM disease severity over time [2]: increased significantly over time; Germination inhibition, Botrytis (Botrytis cinerea spores): **; Germination inhibition, Clado. [3]: ****; Germination inhibition, Monilinia [4]: ****; Overall Rating [5]: 10

Question: How did the “course of PM disease over time” value ([6]; inoculated leaves) turn out when `CCCCC/C=C\C/C=C\CCCCCCCC(=O)O` [Linol, Linoleic acid] was run?
Answer: disease increased steadily throughout the trial

Question: What about the “PM Disease Rating” value ([6]; inoculated leaves, 0 wks, scale 0-6 of Table 1) of the same compound?
Answer: 2.63

Question: What about the “PM Disease Rating” value ([6]; inoculated leaves, 2 wks) of the same compound?
Answer: 5.25

Question: What about the “PM Disease Rating” value ([6]; inoculated leaves, 4 wks) of the same compound?
Answer: 5.88

Question: What about the “PM Disease Rating” value ([6]; inoculated leaves, 6 wks) of the same compound?
Answer: 6.00

Question: And the “PM Disease Rating” value ([6]; inoculated leaves, 7 wks)?
Answer: 6.00

Question: What about the “course of natural PM infections over time” value ([6]; non-inoculated leaves, 0-7 weeks) of the same compound?
Answer: rapid breakdown in protective activity

Question: And the “PM Disease Rating” value ([6]; non-inoculated leaves, 0 wks, scale 0-6 of Table 1)?
Answer: 0.63

Question: What about the “PM Disease Rating” value ([6]; non-inoculated leaves, 2 wks) of the same compound?
Answer: 2.77

Question: What about the “PM Disease Rating” value ([6]; non-inoculated leaves, 4 wks) of the same compound?
Answer: 5.56

Question: What about the “PM Disease Rating” value ([6]; non-inoculated leaves, 6 wks) of the same compound?
Answer: 6.00

Question: And the “PM Disease Rating” value ([6]; non-inoculated leaves, 7 wks)?
Answer: 6.00

Question: And the “leaf health rating” value ([1]; Trial 3 main, non-inoculated leaves after 7 weeks of treatment application, median value)?
Answer: F (More than 20% of the leaf area is dead)

Question: What about the “Germination inhibition, Botrytis” value (Botrytis cinerea spores) of the same compound?
Answer: —

Question: And the “Germination inhibition, Clado.” value [3]?
Answer: —

Question: What about the “Germination inhibition, Monilinia” value [4] of the same compound?
Answer: —

Question: And the “Overall Rating” value [5]?
Answer: 0
